Measurements from ChEMBL document CHEMBL1153563, “Comparative in vitro activities of caspofungin and micafungin, determined using the method of the European Committee on Antimicrobial Susceptibility Testing, against yeast isolates obtained in France in 2005-2006” (2008).
Values after ≈ are worked out from the molar mass of the structure shown.

How the values were obtained:
Type in all cases: functional
Meyerozyma caribbica = assay: Antifungal activity against Candida fermentati after 24 to 48 hrs by AFST-EUCAST based broth microdilution method
Rhodotorula mucilaginosa = assay: Antifungal activity against Rhodotorula mucilaginosa after 24 to 48 hrs by AFST-EUCAST based broth microdilution method
[1] = test system: Meyerozyma guilliermondii; assay: Antifungal activity against Candida guilliermondii after 24 to 48 hrs by AFST-EUCAST based broth microdilution method
Geotrichum = assay: Antifungal activity against Geotrichum after 24 to 48 hrs by AFST-EUCAST based broth microdilution method
Candida africana = assay: Antifungal activity against Candida africana after 24 to 48 hrs by AFST-EUCAST based broth microdilution method
Cyberlindnera jadinii = assay: Antifungal activity against Candida utilis after 24 to 48 hrs by AFST-EUCAST based broth microdilution method; details: Williopsis jadinii
Zygosaccharomyces = assay: Antifungal activity against Zygosaccharomyces after 24 to 48 hrs by AFST-EUCAST based broth microdilution method
Wickerhamomyces anomalus = assay: Antifungal activity against Candida pelliculosa after 24 to 48 hrs by AFST-EUCAST based broth microdilution method; details: Hansenula anomala
Nakaseomyces glabratus = assay: Antifungal activity against Candida glabrata after 24 to 48 hrs by AFST-EUCAST based broth microdilution method
Candida parapsilosis = assay: Antifungal activity against Candida parapsilosis ATCC 22019 after 24 to 48 hrs by AFST-EUCAST based broth microdilution method; details: Lodderomyces parapsilosis
[Candida] haemuloni = Antifungal activity against Candida haemulonii after 24 to 48 hrs by AFST-EUCAST based broth microdilution method; details: Candidozyma haemuli
Trichosporon = assay: Antifungal activity against Trichosporon after 24 to 48 hrs by AFST-EUCAST based broth microdilution method
[Candida] inconspicua = Antifungal activity against Candida inconspicua after 24 to 48 hrs by AFST-EUCAST based broth microdilution method; details: Pichia inconspicua
Debaryomyces hansenii = assay: Antifungal activity against Candida famata after 24 to 48 hrs by AFST-EUCAST based broth microdilution method
Clavispora lusitaniae = assay: Antifungal activity against Candida lusitaniae after 24 to 48 hrs by AFST-EUCAST based broth microdilution method
Pichia kudriavzevii = assay: Antifungal activity against Candida krusei ATCC 6258 after 24 to 48 hrs by AFST-EUCAST based broth microdilution method
Candida albicans = assay: Antifungal activity against Candida albicans after 24 to 48 hrs by AFST-EUCAST based broth microdilution method
Candida dubliniensis = assay: Antifungal activity against Candida dubliniensis after 24 to 48 hrs by AFST-EUCAST based broth microdilution method
Yarrowia lipolytica = assay: Antifungal activity against Candida lipolytica after 24 to 48 hrs by AFST-EUCAST based broth microdilution method
Saccharomyces cerevisiae = assay: Antifungal activity against Saccharomyces cerevisiae after 24 to 48 hrs by AFST-EUCAST based broth microdilution method
Candida tropicalis = assay: Antifungal activity against Candida tropicalis after 24 to 48 hrs by AFST-EUCAST based broth microdilution method
Cryptococcus neoformans = assay: Antifungal activity against […] after 24 to 48 hrs by AFST-EUCAST based broth microdilution method
[Candida] intermedia = Antifungal activity against Candida intermedia after 24 to 48 hrs by AFST-EUCAST based broth microdilution method; details: Sungouiella intermedia
Diutina rugosa = assay: Antifungal activity against Candida rugosa after 24 to 48 hrs by AFST-EUCAST based broth microdilution method
Pichia norvegensis = assay: Antifungal activity against Candida norvegensis after 24 to 48 hrs by AFST-EUCAST based broth microdilution method
Kodamaea ohmeri = assay: Antifungal activity against Kodamaea ohmeri after 24 to 48 hrs by AFST-EUCAST based broth microdilution method
Kluyveromyces marxianus = assay: Antifungal activity against Candida kefyr after 24 to 48 hrs by AFST-EUCAST based broth microdilution method
Kluyveromyces lactis = assay: Antifungal activity against Candida sphaerica after 24 to 48 hrs by AFST-EUCAST based broth microdilution method
Pichia fermentans = assay: Antifungal activity against Candida lambica after 24 to 48 hrs by AFST-EUCAST based broth microdilution method
Nakaseomyces nivariensis = assay: Antifungal activity against Candida nivariensis after 24 to 48 hrs by AFST-EUCAST based broth microdilution method
Cyberlindnera saturnus = assay: Antifungal activity against Williopsis saturnus after 24 to 48 hrs by AFST-EUCAST based broth microdilution method

Question: Which MIC50 (Meyerozyma caribbica) does the source give for `CC[C@H](C)C[C@H](C)CCCCCCCCC(=O)N[C@H]1C[C@@H](O)[C@@H](NCCN)NC(=O)[C@@H]2[C@@H](O)CCN2C(=O)[C@H]([C@H](O)CCN)NC(=O)[C@H]([C@H](O)[C@@H](O)c2ccc(O)cc2)NC(=O)[C@@H]2C[C@@H](O)CN2C(=O)[C@H]([C@@H](C)O)NC1=O` [CASPOFUNGIN] here?
Answer: The MIC50 was 1 µg/mL (≈ 0.915 µM).

Question: What about the MIC90 (Meyerozyma caribbica) of the same compound?
Answer: The MIC90 was 2 µg/mL (≈ 1.83 µM).

Question: And the MIC50 (Rhodotorula mucilaginosa)?
Answer: The MIC50 was 16 µg/mL (≈ 14.6 µM).

Question: And the MIC50 [1]?
Answer: The MIC50 was 2 µg/mL (≈ 1.83 µM).

Question: What about the MIC90 [1] of the same compound?
Answer: The MIC90 was 2 µg/mL (≈ 1.83 µM).

Question: What about the MIC50 (Geotrichum) of the same compound?
Answer: The MIC50 was 1 µg/mL (≈ 0.915 µM).

Question: And the MIC90 (Geotrichum)?
Answer: The MIC90 was 16 µg/mL (≈ 14.6 µM).

Question: And the MIC50 (Candida africana)?
Answer: The MIC50 was 0.5 µg/mL (≈ 0.457 µM).

Question: And the MIC90 (Candida africana)?
Answer: Its MIC90 is 1 µg/mL (≈ 0.915 µM).

Question: What about the MIC50 (Cyberlindnera jadinii) of the same compound?
Answer: Its MIC50 is 0.5 µg/mL (≈ 0.457 µM).

Question: What about the MIC90 (Cyberlindnera jadinii) of the same compound?
Answer: The MIC90 was 1 µg/mL (≈ 0.915 µM).

Question: What about the MIC50 (Zygosaccharomyces) of the same compound?
Answer: Its MIC50 is 1 µg/mL (≈ 0.915 µM).

Question: And the MIC90 (Zygosaccharomyces)?
Answer: The MIC90 was 16 µg/mL (≈ 14.6 µM).

Question: What about the MIC50 (Wickerhamomyces anomalus) of the same compound?
Answer: Its MIC50 is 0.5 µg/mL (≈ 0.457 µM).

Question: And the MIC90 (Wickerhamomyces anomalus)?
Answer: Its MIC90 is 1 µg/mL (≈ 0.915 µM).

Question: And the MIC50 (Nakaseomyces glabratus)?
Answer: Its MIC50 is 0.5 µg/mL (≈ 0.457 µM).

Question: And the MIC90 (Nakaseomyces glabratus)?
Answer: Its MIC90 is 1 µg/mL (≈ 0.915 µM).

Question: And the MIC50 (Candida parapsilosis)?
Answer: Its MIC50 is 2 µg/mL (≈ 1.83 µM).

Question: What about the MIC90 (Candida parapsilosis) of the same compound?
Answer: Its MIC90 is 2 µg/mL (≈ 1.83 µM).

Question: What about the MIC50 ([Candida] haemuloni) of the same compound?
Answer: Its MIC50 is 1 µg/mL (≈ 0.915 µM).

Question: What about the MIC90 ([Candida] haemuloni) of the same compound?
Answer: The MIC90 was 2 µg/mL (≈ 1.83 µM).

Question: What about the MIC50 (Trichosporon) of the same compound?
Answer: The MIC50 was 16 µg/mL (≈ 14.6 µM).

Question: What about the MIC50 ([Candida] inconspicua) of the same compound?
Answer: Its MIC50 is 0.5 µg/mL (≈ 0.457 µM).

Question: What about the MIC90 ([Candida] inconspicua) of the same compound?
Answer: The MIC90 was 1 µg/mL (≈ 0.915 µM).

Question: And the MIC50 (Debaryomyces hansenii)?
Answer: The MIC50 was 0.5 µg/mL (≈ 0.457 µM).

Question: What about the MIC90 (Debaryomyces hansenii) of the same compound?
Answer: Its MIC90 is 1 µg/mL (≈ 0.915 µM).

Question: And the MIC50 (Clavispora lusitaniae)?
Answer: The MIC50 was 1 µg/mL (≈ 0.915 µM).

Question: And the MIC90 (Clavispora lusitaniae)?
Answer: Its MIC90 is 1 µg/mL (≈ 0.915 µM).

Question: What about the MIC50 (Pichia kudriavzevii) of the same compound?
Answer: Its MIC50 is 1 µg/mL (≈ 0.915 µM).

Question: And the MIC90 (Pichia kudriavzevii)?
Answer: Its MIC90 is 2 µg/mL (≈ 1.83 µM).

Question: What about the MIC50 (Candida albicans) of the same compound?
Answer: The MIC50 was 0.5 µg/mL (≈ 0.457 µM).

Question: What about the MIC90 (Candida albicans) of the same compound?
Answer: The MIC90 was 0.5 µg/mL (≈ 0.457 µM).

Question: What about the MIC50 (Candida dubliniensis) of the same compound?
Answer: The MIC50 was 0.5 µg/mL (≈ 0.457 µM).

Question: What about the MIC90 (Candida dubliniensis) of the same compound?
Answer: Its MIC90 is 1 µg/mL (≈ 0.915 µM).

Question: What about the MIC50 (Yarrowia lipolytica) of the same compound?
Answer: The MIC50 was 0.5 µg/mL (≈ 0.457 µM).

Question: What about the MIC90 (Yarrowia lipolytica) of the same compound?
Answer: Its MIC90 is 1 µg/mL (≈ 0.915 µM).

Question: And the MIC50 (Saccharomyces cerevisiae)?
Answer: Its MIC50 is 1 µg/mL (≈ 0.915 µM).

Question: And the MIC90 (Saccharomyces cerevisiae)?
Answer: Its MIC90 is 16 µg/mL (≈ 14.6 µM).

Question: What about the MIC50 (Candida tropicalis) of the same compound?
Answer: The MIC50 was 0.5 µg/mL (≈ 0.457 µM).

Question: And the MIC90 (Candida tropicalis)?
Answer: Its MIC90 is 1 µg/mL (≈ 0.915 µM).

Question: And the MIC50 (Cryptococcus neoformans)?
Answer: The MIC50 was 8 µg/mL (≈ 7.32 µM).

Question: What about the MIC90 (Cryptococcus neoformans) of the same compound?
Answer: The MIC90 was 16 µg/mL (≈ 14.6 µM).

Question: And the MIC50 ([Candida] intermedia)?
Answer: The MIC50 was 0.5 µg/mL (≈ 0.457 µM).

Question: What about the MIC90 ([Candida] intermedia) of the same compound?
Answer: Its MIC90 is 1 µg/mL (≈ 0.915 µM).

Question: What about the MIC50 (Diutina rugosa) of the same compound?
Answer: The MIC50 was 0.5 µg/mL (≈ 0.457 µM).

Question: What about the MIC90 (Diutina rugosa) of the same compound?
Answer: Its MIC90 is 1 µg/mL (≈ 0.915 µM).

Question: What about the MIC50 (Pichia norvegensis) of the same compound?
Answer: Its MIC50 is 0.5 µg/mL (≈ 0.457 µM).

Question: What about the MIC90 (Pichia norvegensis) of the same compound?
Answer: The MIC90 was 1 µg/mL (≈ 0.915 µM).

Question: What about the MIC50 (Kodamaea ohmeri) of the same compound?
Answer: Its MIC50 is 1 µg/mL (≈ 0.915 µM).

Question: And the MIC90 (Kodamaea ohmeri)?
Answer: The MIC90 was 16 µg/mL (≈ 14.6 µM).

Question: What about the MIC50 (Kluyveromyces marxianus) of the same compound?
Answer: The MIC50 was 0.25 µg/mL (≈ 0.229 µM).

Question: What about the MIC90 (Kluyveromyces marxianus) of the same compound?
Answer: The MIC90 was 0.5 µg/mL (≈ 0.457 µM).

Question: What about the MIC50 (Kluyveromyces lactis) of the same compound?
Answer: Its MIC50 is 0.5 µg/mL (≈ 0.457 µM).

Question: What about the MIC90 (Kluyveromyces lactis) of the same compound?
Answer: Its MIC90 is 1 µg/mL (≈ 0.915 µM).

Question: What about the MIC50 (Pichia fermentans) of the same compound?
Answer: Its MIC50 is 0.5 µg/mL (≈ 0.457 µM).

Question: What about the MIC90 (Pichia fermentans) of the same compound?
Answer: Its MIC90 is 1 µg/mL (≈ 0.915 µM).

Question: What about the MIC50 (Nakaseomyces nivariensis) of the same compound?
Answer: The MIC50 was 0.5 µg/mL (≈ 0.457 µM).

Question: And the MIC90 (Nakaseomyces nivariensis)?
Answer: The MIC90 was 1 µg/mL (≈ 0.915 µM).

Question: And the MIC50 (Cyberlindnera saturnus)?
Answer: Its MIC50 is 1 µg/mL (≈ 0.915 µM).

Question: And the MIC90 (Cyberlindnera saturnus)?
Answer: The MIC90 was 16 µg/mL (≈ 14.6 µM).
